Source: US20230287343A1, “METHOD FOR GENERATING A THREE-DIMENSIONAL NEUROMUSCULAR ORGANOID IN VITRO” (MAX-DELBRÜCK-CENTRUM FÜR MOLEKULARE MEDIZIN IN DER …, priority 2020, published 2023)
Entries after “also recorded” stand apart in the source; their conditions may differ.

Tests used:
[1] = test system: neuromuscular organoids (NMOs); experiment: Microelectrode array (MEA) recording of NMO electrical activity; assay type: cell-based, human; details: for suppression of electrical activity: APV 50 uM and CNQX 40 uM applied together; for local (single electrode) firings / synchronous network activity (paired electrode spikes): NMDA and 5-HT stimulation at day 50; for rhythmic activity (central pattern generator-like): NMDA/5-HT cocktail; for activity triggered by the drugs (fictive locomotion paradigm): cocktail of NMDA (10 uM) and 5-HT (40 uM)
[2] = test system: neuromuscular organoids (NMOs); experiment: Contractile activity of NMOs before and after curare; assay type: cell-based, human; details: curare 10 uM, before and after treatment
Experimental: Video segments of equal length were recorded using a bright-field microscope (DMI1, Leica) in 3 different regions of the same organoid using 20× zoom. To quantify muscle contractions, each movie was analyzed separately where each visible contraction was counted and then averaged for the whole organoid.
To analyze and map organoid muscular contraction, bright field time series images were automatically thresholded using ImageJ software to identify organoid border. A binary stack was created and contractile regions were visually identified. Regions of interest were defined and variations of organoid area (in pixel), used as a proxy of physical contraction, were plotted over the time series.

N[C@@H](CCCP(=O)(O)O)C(=O)O [APV]
suppression of electrical activity [1]: reversibly suppressed nearly all electrical activity

N[C@@H](CCC(=O)O)C(=O)O [glutamate]
increase of spontaneous activity ([1]; acute glutamate 50 uM, day 30 and day 50 organoids): approximately 12 fold

NC1=N[C@H](O)[C@H]2[C@H]3O[C@]4(O)O[C@@H]([C@@H](O)[C@@]2(N1)[C@@H]4O)[C@]3(O)CO [tetrodotoxin]
suppression of NMDA/5-HT triggered activity [1]: reversibly suppressed

curare
contraction of the skeletal muscles (contractile activity of NMOs) [2]: blocked the contraction of the skeletal muscles; also recorded: organoid relaxation | block of acetylcholine-stimulated electrical activity ([1]; curare 10 uM, day 50 NMOs): rapidly and reversibly blocked

N#Cc1cc2[nH]c(=O)c(=O)[nH]c2cc1[N+](=O)[O-] [CNQX]
suppression of electrical activity [1]: reversibly suppressed nearly all electrical activity

NCCc1c[nH]c2ccc(O)cc12 [5-HT, Serotonin]
local (single electrode) firings [1]: increased single firings; also recorded: notable increase of local firings | synchronous network activity (paired electrode spikes) [1]: increase in paired electrode spikes; also recorded: dramatic increase of synchronous network activity | rhythmic activity (central pattern generator-like) ([1]; day 50 NMOs): activity became rhythmic; also recorded: produced rhythmic bursts of electrical activity | activity triggered by the drugs (fictive locomotion paradigm) [1]: instantaneously triggered strong activity

CN[C@H](CC(=O)O)C(=O)O [NMDA]
local (single electrode) firings [1]: increased single firings; also recorded: notable increase of local firings | synchronous network activity (paired electrode spikes) [1]: increase in paired electrode spikes; also recorded: dramatic increase of synchronous network activity | rhythmic activity (central pattern generator-like) ([1]; day 50 NMOs): activity became rhythmic; also recorded: produced rhythmic bursts of electrical activity | activity triggered by the drugs (fictive locomotion paradigm) [1]: instantaneously triggered strong activity
